Experimental data taken from patent publication US20150164967A1, “Personal Care Products Containing Extracts of Rosemary” (Kemin Industries, Inc., priority 2013, published 2015).

Test system: vesperlysine-like and pentosidine-like AGEs from albumin glycation
Test: Inhibition of AGE formation from albumin glycation (BSA + D-ribose, fluorescence)
Assay type: biochemical, bovine
Description: Following solutions were prepared for the assay: Reagent A: Phosphate buffer pH 7.0: 0.03 M KH2PO4 and 0.03 M K2HPO4 in ultrapure water (Millipore® Synergy® UV); Reagent B: 1.3 mg/mL aminoguanidine hydrochloride in phosphate buffer; Reagent C: 32 mg/mL Rosamox-Z in phosphate buffer; Reagent D: 30 mg/mL Zemea® Propanediol in phosphate buffer; Reagent E: 30 mg/mL BSA in phosphate buffer; Reagent F: 1.5 M D-ribose in phosphate buffer.
All the diluted samples (Sample B1-B5) were used for the AGE reaction.
Samples C1-C5 were diluted from the sample stock (reagent C) solution. Samples C6-C9 were diluted from Sample C5. All the diluted samples (Sample C1-C9) were used for the AGE reaction. Test samples D were diluted the same way as test samples C.
(Following Sero, L. et al. (2013) Tuning a 96-Well Microtiter Plate Fluorescence-Based Assay to Identify AGE Inhibitors in Crude Plant Extracts. Molecules. 18, 14320-14339.) A 96-well plate was prepared as follows (each sample was prepared in triplicate): Blank wells—50 μL BSA stock (reagent E) solution and 100 μL phosphate buffer (reagent A); Negative control wells—50 μL BSA stock (reagent E) and 50 μL diluent (Reagent A) to three empty wells; Positive control wells—50 μL BSA stock (reagent E) and 50 μL Aminoguanidine hydrochloride samples (Sample B1-B5); All treatments—50 μL BSA stock (reagent E) and 50 μL treatments (Sample C1-C9 and D1-D9); 50 μL D-ribose solutions (Reagent F) were added to every well except the blank wells.
The plates were read for fluorescence at λexc 370 nm λem 440 nm for versperlysines-like AGEs and λexc 335 nm λem 385 nm for pentosidine like AGEs. The plate was wrapped with aluminum foil to avoid light exposure and incubated at 37° C. and read again after 24 hours.
% inhibition was calculated as ((control 24 hours−control 0 hours)−(treatment 24 hours−treatment 0 hours))/(control 24 hours−control 0 hours).
FIG. 10 is a chart of the inhibition effect of Rosamox-Z on the formation of vesperlysine-like and pentosidine-like AGEs from albumin glycation. […]

Row | Compound | inhibition effect for pentosidine-like AGEs (0-15 mg/mL, λexc 335 nm λem 385 nm, 24 h at 37° C.) | promoting effect for vesperlysines-like AGEs (0-15 mg/mL, λexc 370 nm λem 440 nm, 24 h at 37° C.) | predicted 1050 for these reactions (worked out from the Rosamox-Z value and 4% carnosic acid content) [mg/mL]
1 | [2H]C([2H])(O)C([2H])([2H])C([2H])([2H])O [Zemea® Propanediol, Propanediol] | around 10% | around 5% | –
2 | CC(C)c1cc2c(c(O)c1O)[C@@]1(C(=O)O)CCCC(C)(C)[C@@H]1CC2 [carnosic acid] | – | – | 0.4 to 0.6
